# Results: patent US20260345574A1, “POTENT AND SELECTIVE IRREVERSIBLE INHIBITORS OF IRAK1” (Dana-Farber Cancer Institute, Inc., priority 2022, published 2026)
# Experiments:
# IRAK4 = target: T1, IRAK4 (Homo sapiens, UniProt Q9NWZ3); assay: Z'-LYTE assay (ThermoFisher) against IRAK4; format: biochemical; settings: Ser/Thr 07 substrate, 60 minutes at room temperature
# T1 sequence (Q9NWZ3 1-460): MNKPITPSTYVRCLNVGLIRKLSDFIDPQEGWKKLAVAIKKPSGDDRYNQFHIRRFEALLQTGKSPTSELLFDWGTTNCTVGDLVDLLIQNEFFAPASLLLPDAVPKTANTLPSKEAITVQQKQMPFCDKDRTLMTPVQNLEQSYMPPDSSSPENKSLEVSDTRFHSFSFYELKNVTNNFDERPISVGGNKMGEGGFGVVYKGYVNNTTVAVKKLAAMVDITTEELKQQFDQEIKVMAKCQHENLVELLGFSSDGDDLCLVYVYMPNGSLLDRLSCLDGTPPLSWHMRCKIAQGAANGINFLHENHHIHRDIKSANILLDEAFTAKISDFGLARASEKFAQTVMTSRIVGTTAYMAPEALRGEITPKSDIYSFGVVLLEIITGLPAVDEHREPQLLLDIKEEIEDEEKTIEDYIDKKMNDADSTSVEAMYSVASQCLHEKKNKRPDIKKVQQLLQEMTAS
# Experimental: To measure the IC50 values of compounds herein against IRAK4, a Z′-LYTE assay (ThermoFisher) was used. Briefly, 2.5 μL of different concentrations of the compounds in 1% DMSO were added to 2.4 μL kinase buffer (50 mM HEPES pH 7.5, 0.01% BRIJ-35, 10 mM MgCl2, 1 mM EGTA) in each well of a 384-well plate (Corning Cat. #3676). 5 μL of 2× IRAK4/Ser/Thr 07 mixture (prepared in 50 mM HEPES pH 7.5, 0.01% BRIJ-35, 10 mM MnCl2, 2 mM DTT, and 0.02% NaN3) and 2.5 μL of 4× ATP solution (4× ATP, 50 mM HEPES, pH 7.5, 0.01% BRIJ-35, 10 mM MgCl2, 1 mM EGTA) were added to each well. The plate was shaken for 30 seconds, and then incubated at room temperature for 60 minutes. 5 μL of a 1:100000 dilution of Development Reagent A was added to each well. The plate was shaken for 30 seconds and incubated for 60 minutes at room temperature. The plate was subsequently read on a fluorescence plate reader, and the emissions ratio was calculated to determine the ratio of Ser/Thr 07 phosphorylated by the reaction. Emissions Ratio=Coumarin Emission (443 nm)/Flourescein Emission (520 nm).
# IRAK1 = IRAK1 (Homo sapiens, UniProt P51617); assay: Adapta Universal Kinase Assay (ThermoFisher) against IRAK1; format: biochemical; settings: Histone H3 (1-20) peptide substrate, 60 minutes at room temperature
# Experimental: To measure the IC50 values of the compounds herein against IRAK1, the Adapta Universal Kinase Assay (ThermoFisher) was used. Briefly, 100 nL of different concentrations of the compounds in 100% DMSO were added to each well of a 384-well plate (Corning Cat. #4512). 2.4 μL of 30 mM HEPES, 2.5 μL of 4× ATP solution (in water), and 5 μL of 2× IRAK1/Histone H3 (1-20) peptide mixture (prepared in 50 mM HEPES pH 7.5, 0.01% BRIJ-35, 10 mM MgCl2, 1 mM EGTA) were added to each well. The plate was shaken for 30 seconds and centrifuged for 1 minute at 1000×g. The plate was then incubated at room temperature for 60 minutes. 5 μL of Detection Mix was added to each well. The plate was shaken for 30 seconds and centrifuged for 1 minute at 1000×g. The plate was then incubated at room temperature for 60 minutes. The plate was subsequently read on a fluorescence plate reader, and the emissions ratio was calculated to determine the ratio of ATP to ADP. Emissions Ratio=AF647 Emission (665 nm)/Europium Emission (615 nm).
# Chain of IRAK1 (P51617 whole entry): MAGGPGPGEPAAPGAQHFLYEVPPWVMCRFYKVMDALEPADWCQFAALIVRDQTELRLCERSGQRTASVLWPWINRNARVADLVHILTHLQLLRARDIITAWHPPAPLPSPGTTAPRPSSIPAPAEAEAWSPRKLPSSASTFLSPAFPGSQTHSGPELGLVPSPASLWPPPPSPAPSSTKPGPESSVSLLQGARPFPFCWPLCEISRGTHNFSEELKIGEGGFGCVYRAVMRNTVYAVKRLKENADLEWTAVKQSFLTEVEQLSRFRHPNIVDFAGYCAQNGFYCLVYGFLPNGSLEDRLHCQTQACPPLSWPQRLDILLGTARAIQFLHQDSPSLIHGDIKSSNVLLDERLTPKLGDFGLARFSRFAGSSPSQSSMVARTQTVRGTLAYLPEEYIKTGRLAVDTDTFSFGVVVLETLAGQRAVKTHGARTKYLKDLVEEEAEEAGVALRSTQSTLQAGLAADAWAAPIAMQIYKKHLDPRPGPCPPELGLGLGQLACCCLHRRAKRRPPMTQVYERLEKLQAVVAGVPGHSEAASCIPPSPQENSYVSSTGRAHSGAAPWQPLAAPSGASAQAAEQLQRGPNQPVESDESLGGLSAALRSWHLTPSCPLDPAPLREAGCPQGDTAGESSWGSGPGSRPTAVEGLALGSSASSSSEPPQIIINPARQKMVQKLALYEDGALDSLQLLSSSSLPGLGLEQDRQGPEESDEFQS
SMILES,IC50 (IRAK4) [µM],IC50 (IRAK1) [nM]
"C=CC(=O)N1CCC[C@H](c2nc(-c3ccc(NC(=O)c4cccc(-c5ccn[nH]5)n4)nc3)no2)C1 [Compound 001, (S)-N-(5-(5-(1-acryloylpiperidin-3-yl)-1,2,4-oxadiazol-3-yl)pyridin-2-yl)-6-(1H-pyrazol-5-yl)picolinamide]",> 10,19.8
"C=CC(=O)N1CC(c2nc(-c3ccc(NC(=O)c4cccc(-c5ccn[nH]5)n4)nc3)no2)CC(F)(F)C1 (centres unmarked) [Compound 002, N-(5-(5-(1-acryloyl-5,5-difluoropiperidin-3-yl)-1,2,4-oxadiazol-3-yl)pyridin-2-yl)-6-(1H-pyrazol-5-yl)picolinamide]",> 10,6.42
"C=CC(=O)N1CCC[C@H](c2nnc(-c3ccc(NC(=O)c4cccc(-c5ccn[nH]5)n4)nc3)o2)C1 [Compound 005, (S)-N-(5-(5-(1-acryloylpiperidin-3-yl)-1,3,4-oxadiazol-2-yl)pyridin-2-yl)-6-(1H-pyrazol-5-yl)picolinamide]",9.34,96.1
"C=CC(=O)N1CCC[C@H](c2nc(-c3ccc(NC(=O)c4cccc(-c5[nH]ncc5C)n4)nc3)no2)C1 [Compound 006, (S)-N-(5-(5-(1-acryloylpiperidin-3-yl)-1,2,4-oxadiazol-3-yl)pyridin-2-yl)-6-(4-methyl-1H-pyrazol-5-yl)picolinamide]",> 10,8.21
"C=CC(=O)N1CC(c2nc(-c3ccc(NC(=O)c4cccc(-c5[nH]ncc5C)n4)nc3)no2)CC(F)(F)C1 (centres unmarked) [Compound 007, N-(5-(5-(1-acryloyl-5,5-difluoropiperidin-3-yl)-1,2,4-oxadiazol-3-yl)pyridin-2-yl)-6-(4-methyl-1H-pyrazol-5-yl)picolinamide]",> 10,3.98
"C=CC(=O)N1CC(c2nc(-c3ccc(NC(=O)c4cccc(-c5[nH]ncc5Cl)n4)nc3)no2)CC(F)(F)C1 (centres unmarked) [Compound 008, N-(5-(5-(1-acryloyl-5,5-difluoropiperidin-3-yl)-1,2,4-oxadiazol-3-yl)pyridin-2-yl)-6-(4-chloro-1H-pyrazol-5-yl)picolinamide]",> 10,5.11
"C=CC(=O)N1CC(C(F)(F)F)C[C@H](c2nc(-c3ccc(NC(=O)c4cccc(-c5ccn[nH]5)n4)nc3)no2)C1 (stereo partly drawn) [Compound 009, N-(5-(5-((3S)-1-acryloyl-5-(trifluoromethyl)piperidin-3-yl)-1,2,4-oxadiazol-3-yl)pyridin-2-yl)-6-(1H-pyrazol-5-yl)picolinamide]",> 10,3.98
"C=CC(=O)N1CC2CC1[C@@H](c1nc(-c3ccc(NC(=O)c4cccc(-c5[nH]ncc5C)n4)nc3)no1)C2 (stereo partly drawn) [Compound 010, N-(5-(5-((6S)-2-acryloyl-2-azabicyclo[2.2.1]heptan-6-yl)-1,2,4-oxadiazol-3-yl)pyridin-2-yl)-6-(4-methyl-1H-pyrazol-5-yl)picolinamide]",> 10,5.11
"C=CC(=O)N1CCC[C@H](c2nc(-c3ccc(NC(=O)c4cccc(-c5ccnn5CC5(C(F)(F)F)CC5)n4)nc3)no2)C1 [Compound 017, (S)-N-(5-(5-(1-acryloylpiperidin-3-yl)-1,2,4-oxadiazol-3-yl)pyridin-2-yl)-6-(1-((1-(trifluoromethyl)cyclopropyl)methyl)-1H-pyrazol-5-yl)picolinamide]",> 10,> 10000
C=CC(=O)N1CCC[C@H](C(=O)Nc2ccc(-c3nnc(-c4cccc(-c5ccn[nH]5)n4)[nH]3)nc2)C1 [Compound 018],0.125,3.95
C=CC(=O)N1CCC[C@H](C(=O)Nc2ccc(-c3nnc(-c4cccc(-c5ccn[nH]5)n4)o3)nc2)C1 [Compound 019],0.331,5
C=CC(=O)N1CCC[C@H](C(=O)Nc2ccc(-c3nc(-c4cccc(-c5ccn[nH]5)n4)no3)nc2)C1 [Compound 020],0.333,2.6
C=CC(=O)N1CCC[C@H](C(=O)Nc2ccc(-c3ncc(-c4cccc(-c5ccn[nH]5)n4)o3)nc2)C1 [Compound 022],0.376,5.35

# The next lines start with the values.
IC50 (IRAK4) [µM],IC50 (IRAK1) [nM],SMILES
0.244,6.07,C=CC(=O)N1CCC[C@H](C(=O)Nc2ccc(-c3ncc(-c4cccc(-c5ccn[nH]5)n4)s3)nc2)C1 [Compound 023]
0.474,6.54,C=CC(=O)N1CCC[C@H](C(=O)Nc2ccc(-c3ncc(-c4cccc(-c5ccn[nH]5)n4)[nH]3)nc2)C1 [Compound 024]
0.353,2.22,C=CC(=O)N1CCC[C@H](C(=O)Nc2ccc(Nc3nsc4ccc(-c5ccn[nH]5)nc34)cc2)C1 [Compound 025]
0.365,6.86,C=CC(=O)N1CCC[C@H](C(=O)Nc2ccc(Nc3n[nH]c4ccc(-c5ccn[nH]5)nc34)cc2)C1 [Compound 026]
> 10,84.3,"C=CC(=O)N1CCC[C@H](c2nc(-c3ccc(NC(=O)c4cccc(-c5ccn[nH]5)n4)cn3)no2)C1 [Compound 061, (S)-N-(6-(5-(1-acryloylpiperidin-3-yl)-1,2,4-oxadiazol-3-yl)pyridin-3-yl)-6-(1H-pyrazol-5-yl)picolinamide]"
> 10,94.2,C=CC(=O)N1C[C@@H](c2nc(-c3ccc(NC(=O)c4cccc(-c5ccn[nH]5)n4)nc3)no2)C[C@@H](C(F)(F)F)C1 [Compound 062]
> 10,14.8,C=CC(=O)N1C[C@@H](c2nc(-c3ccc(NC(=O)c4cccc(-c5ccn[nH]5)n4)nc3)no2)CC(F)(F)C1 [Compound 063]
> 10,30.4,C=CC(=O)N1C[C@@H](c2nc(-c3ccc(NC(=O)c4cccc(-c5ccn[nH]5)n4)nc3)no2)C[C@H](C(F)(F)F)C1 [Compound 064]
5.76,324,"C=CC(=O)N1CCC[C@H](C(=O)Nc2ccc(NC(=O)c3csc(-c4ccn[nH]4)n3)nc2)C1 [Compound 068, (S)-N-(5-(1-acryloylpiperidine-3-carboxamido)pyridin-2-yl)-2-(1H-pyrazol-5-yl)thiazole-4-carboxamide]"
3.33,1200,"C=CC(=O)N1CCC[C@H](C(=O)Nc2ccc(-c3cnc(-c4cccc(-c5ccn[nH]5)n4)[nH]3)cc2)C1 [Compound 070, (S)-N-(4-(2-(6-(1H-pyrazol-5-yl)pyridin-2-yl)-1H-imidazol-5-yl)phenyl)-1-acryloylpiperidine-3-carboxamide]"
8.22,609,"C=CC(=O)N1CCC[C@H](C(=O)Nc2ccc(NC(=O)c3csc(-c4ccn[nH]4)n3)cc2)C1 [Compound 071, (S)-N-(4-(1-acryloylpiperidine-3-carboxamido)phenyl)-2-(1H-pyrazol-5-yl)thiazole-4-carboxamide]"
> 10,36.6,C=CC(=O)N1CCC[C@H](c2nc(-c3ccc(NC(=O)c4cccc(-c5ccn[nH]5)n4)cc3)no2)C1 [Compound 075]
> 10,16.4,"C=CC(=O)N1CCC[C@H](c2nc(-c3ccc(NC(=O)c4cccc(-c5ccn[nH]5)n4)c(F)c3)no2)C1 [Compound 076, (S)-N-(4-(5-(1-acryloylpiperidin-3-yl)-1,2,4-oxadiazol-3-yl)-2-fluorophenyl)-6-(1H-pyrazol-5-yl)picolinamide]"
> 10,,C=CC(=O)N1CC2(CC(c3nc(-c4ccc(NC(=O)c5cccc(-c6ccn[nH]6)n5)cc4)no3)C2)C1 [Compound 077]
> 10,521,C=CC(=O)N1C[C@@H](c2nc(-c3ccc(NC(=O)c4cccc(-c5ccn[nH]5)n4)cc3)no2)C[C@@H](C(F)(F)F)C1 [Compound 078]
4.97,,C=CC(=O)N1CC2(CC(c3nc(-c4ccc(NC(=O)c5cccc(-c6ccn[nH]6)n5)cc4)no3)C2)C1 [Compound 091]
